Entries after “also recorded” stand apart in the source; their conditions may differ.
Experiments:
MTBE-utilizing culture [1] = experiment: Effect of methoxylated aromatic compounds as co-substrates on MTBE utilization; format: cell-based; conditions: for lag period of MTBE utilization: 80 μM co-substrate added with MTBE; for effect on MTBE utilization/degradation rate: 80 μM co-substrate, first spiking; for effect on MTBE degradation rate: repeated spiking with MTBE + O-methyl aryl ether
[2] = MTBE loss in abiotic controls (methanogenic and sulfate-reducing media); format: physicochemical
Experimental: To examine the carbon isotope fractionation during anaerobic MTBE degradation, eight batch experiments are set up. Four serum bottles, each containing 100 ml of sulfate-reducing AK enrichment, are prepared as described above. Sodium molybdate (20 mM), a specific inhibitor of sulfate reduction, is added to two sulfate-reducing AK cultures. The two remaining cultures are kept under conditions promoting sulfate reduction. From the CC enrichment, two of the 100-ml cultures are prepared for each methanogenic and sulfate-reducing enrichment. Each culture had been enriched individually from separate CC sediment microcosms and had never been combined. Methanogenic and sulfate-reducing media are used as abiotic controls. Anaerobic MTBE stock solution is added to all live enrichments and abiotic controls to a final concentration of 25 to 30 mg liter^−1. […] The headspace MTBE concentrations of the cultures are monitored over time. […]
The concentration of MTBE is determined by a static headspace method. A 100-μl headspace sample is analyzed for MTBE with a Hewlett-Packard 5890 gas chromatograph (GC) equipped with a DB1 column (0.53 mm by 30 m; J&W Scientific, Folsom, Calif.) and a flame ionization detector with He as the carrier gas. […] For quantification, external aqueous standards of 3.0, 9.0, 15.0, and 30.0 mg liter^−1 for each compound are used. […]

[3] = system: Coronado Cays sediment microcosms (methanogenic and sulfate-reducing); experiment: Development of MTBE-degrading enrichments from Coronado Cays sediment microcosms; format: cell-based; conditions: sediment with 5 mM lactate, sodium molybdate present
[4] = system: sulfate-reducing Arthur Kill enrichment; experiment: Anaerobic MTBE biodegradation and carbon isotope fractionation, batch experiment; format: cell-based; conditions: 20 mM sodium molybdate, inhibitor of sulfate reduction
MTBE-utilizing culture [5] = experiment: MTBE utilization in the presence of various concentrations of syringate; format: cell-based

In the case of `COc1cc(C(=O)O)ccc1O` [vanillate, vanillic acid], the “lag period of MTBE utilization” value (MTBE-utilizing culture [1]) is reported as “comparable to the culture receiving MTBE alone”, the “effect on MTBE utilization/degradation rate” value (MTBE-utilizing culture [1]) is reported as “adverse effect on MTBE degradation; also recorded: decrease” and the “effect on MTBE degradation rate” value (MTBE-utilizing culture [1]) is reported as “increased rate of degradation”.

In the case of `COC(C)(C)C` [MTBE, Methyl tert-butyl ether], the “MTBE loss in abiotic controls” value ([2]; both CC experiments, over 60 days) is reported as < 10% and the “MTBE lost in abiotic controls” value ([2]; end of the Arthur Kill experiment) is reported as 13%.

For `COc1ccccc1O` [guaiacol], the “lag period of MTBE utilization” value (MTBE-utilizing culture [1]) was “comparable to the culture receiving MTBE alone”, the “effect on MTBE utilization/degradation rate” value (MTBE-utilizing culture [1]) was “adverse effect on MTBE degradation; also recorded: more severe than that of vanillate; also recorded: decrease” and the “effect on MTBE degradation rate” value (MTBE-utilizing culture [1]) was “increased rate of degradation”.

For `[Na+].[Na+].[O]=[Mo](=[O])([O-])[O-]` [molybdate, sodium molybdate], the “effect on sulfate reduction” value [3] was “No significant loss of sulfate” and the “effect on MTBE utilization rate” value [4] was “decreases drastically”.

In the case of `COc1cc(C(=O)O)cc(OC)c1O` [syringate, syringic acid], the “lag period of MTBE utilization” value (MTBE-utilizing culture [1]) is reported as 55 days, the “effect on MTBE utilization/degradation rate” value (MTBE-utilizing culture [1]) is reported as “enhances the MTBE utilization rate” and the “effect on MTBE utilization/degradation rate” value (MTBE-utilizing culture [1]; listed as syringic acid) is reported as “increased the degradation rate”. For the same compound, the “effect on MTBE degradation rate” value (MTBE-utilizing culture [1]) was “increased rate of degradation”, the “effect on MTBE utilization” value (MTBE-utilizing culture [5]; 50 μM syringate) was “enhances MTBE utilization” and the “time in which MTBE is utilized” value (MTBE-utilizing culture [5]; 50 μM syringate as co-substrate) was “less than 80 days”. For the same compound, the “effect on MTBE utilization” value (MTBE-utilizing culture [5]; 100 μM syringate) was “enhances MTBE utilization”, the “effect on MTBE utilization” value (MTBE-utilizing culture [5]; 500 μM syringate) was “slightly increases MTBE-degrading activity” and the “effect on MTBE utilization” value (MTBE-utilizing culture [5]; 750 μM syringate) was “slight inhibitory effect on MTBE utilization”. For the same compound, the “effect on MTBE utilization” value (MTBE-utilizing culture [5]; 1000 μM syringate) was “limited MTBE utilization”.

Reference: patent US7867750B2, “Method for anaerobic degradation of fuel oxygenates and similar compounds” (Rutgers, The State University of New Jersey, priority 2006, dated 2011)
